In patent US3984555A, “Therapeutic piperazinylalkyl-quinazolone-(4)-derivatives” (Byk Gulden Lomberg Chemische Fabrik Gesellschaft mit …, priority 1970, dated 1976):
Where two headings read alike, the source gives them in different places.

Experiments:
[1] = test system: defence reaction after the thermal stimulation of the tail of the mouse; assay: Analgesic effect on the mouse: delay in defence reaction after thermal stimulation of the tail (Table IV); format: in vivo; details: po, read-out: Delay in the defence reaction after the thermal stimulation of the tail of the mouse by 25% by mg/kg per os
From the text: From Table IV below one can see the analgesic action, measured in terms of the delayed reaction during the thermal irritation of the mouse tail. The analgesically effective doses are also below those which reduce the motor behaviour, that is to say the normal movement processes (cf. Table III).
Analgesic effect on the mouse
Delay in the defence reaction after
the thermal stimulation of the tail

[2] = test system: duration of sleep of mice under hexobarbital; assay: Prolongation of hexobarbital sleep in mice (Table III, d); format: in vivo; details: Mus musculus, ip; 15 mg/kg i.p.; 75 mg/kg hexobarbital; read-out: d % prolongation of sleep under hexebarbital by 15 mg/kg i.p.
Procedure: d = percentage prolongation of the duration of sleep of mice which had received 75 mg/kg. of hexobarbital, reckoned on the duration of the sleep of control animals.

[3] = test system: running activity of mice pre-treated with α-amphetamine sulphate; assay: Inhibition of running activity of mice pre-treated with α-amphetamine sulphate (Table III, c); format: in vivo; details: Mus musculus, ip, 3 h, 5 mg/kg α-amphetamine sulphate, 180 minutes; for inhibition in vivo at 12 mg/kg: 12mg/kg i/p, read-out: c % inhibition of motility in the treadwheel by 12mg/kg i/p; for inhibition in vivo at 25 mg/kg: 25mg/kg i/p, read-out: c % inhibition of motility in the treadwheel by 25mg/kg i/p
[4] = test system: mouse; assay: Mice falling from a rotating bar (Table III, a); format: in vivo; details: ip, read-out: a PD50 mg/kg i.p.
From the text: The central damping actions of the piperazinyl quinazolones on the mouse can be seen from Table III.
a = dose at which 50% of the mice fall from a rotating bar;

[5] = test system: mouse; assay: Inhibition of spontaneous motility, sedation, muscular relaxation, loss of grip on horizontal wire mesh in mice (Table III, b); format: in vivo; details: po, dose at which an average of 50% of the mice display symptoms, read-out: b SD50 mg/kg oral
[6] = test system: hypertensive effect of noradrenalin; assay: 50% inhibition of hypertensive effect of 0.001 mg/kg i/v noradrenalin on the despinalised rat (Table II); format: in vivo; details: iv, read-out: 50% inhibition of hypertensive effect after i/v dose of Noradrenalin by mg/kg i/v
Procedure: (§1) also on the hypertensive effect of 0.001 mg/kg i/v 1-adrenalin and
(§2) blood pressure and the cardiac frequency of the narcosed rate and also on
(§3) the hypertensive effect of 0.001 mg/kg i.v. 1-adrenaline and noradrenaline
(§4) on the despinalised rat. The mean lethal doses for the mouse are also

[7] = test system: blood pressure and cardiac frequency of the narcotised rat; assay: Influence on the blood pressure and the cardiac frequency of the narcotised rat (Table II); format: in vivo; details: iv, i/v, read-out: Blood pressure lowered by 30% by mg/kg i/v
From the text: Influence on the blood pressure and the cardiac frequency of the
blood pressure and the cardiac frequency of the narcosed rate and also on […]

[8] = LD50 (mean lethal dose) on the mouse (Table II); details: in vivo
From the text: as §4

[9] = test system: hypertensive effect of 1-adrenalin; assay: 50% inhibition of hypertensive effect of 0.001 mg/kg i/v 1-adrenalin on the despinalised rat (Table II); format: in vivo; details: iv, read-out: 50% inhibition of hypertensive effect after i/v dose of Adrenalin by mg/kg i/v
Procedure: as §1, §2, §3, §4

[10] = test system: blood pressure and cardiac frequency of the narcotised cat; assay: Influence on the blood pressure and cardiac frequency of the narcotised cat (Table I); format: in vivo; parameters: unit not given here; details: for Blood pressure lowered by 30% by: dose lowering blood pressure by 30%; for Blood pressure lowered by 50% by: dose lowering blood pressure by 50%
From the text: (§5) Influence on the blood pressure and cardiac frequency and also
(§6) on the carotid sinus reflex of the narcotised cat
(§7) Table I provides a general summary of the influence of different piperazinylquinazolones on the blood pressure, the cardiac frequency and the carotid sinus reflex of the narcotised cat.

[11] = test system: carotid sinus reflex; assay: Inhibition of the carotid sinus reflex of the narcotised cat (Table I); format: in vivo; parameters: unit not given here; details: for Inhibition of the carotid sinus reflex by 30% by: dose for 30% inhibition; for Inhibition of the carotid sinus reflex by 50% by: dose for 50% inhibition
From the text: as §5, §6, §7
The inhibition of the carotid sinus reflex brought about by the piperazinyl quinazolones occurs at lower doses than the spontaneous lowering of the blood pressure in the cat.

[12] = dose at which 50% of the mice fall from a rotating bar

| SMILES | ED25 ([1]; mouse, per os, 25% delay) [mg/kg] | change in vivo at 15 mg/kg [2] [%] | inhibition in vivo at 12 mg/kg [3] [%] | inhibition in vivo at 25 mg/kg [3] [%] | ED50 [4] [mg/kg] | ED50 [5] [mg/kg] | ED50 [6] [mg/kg] | ED30 [7] [mg/kg] | LD50 [8] [mg/kg] | ED50 [9] [mg/kg] | Blood pressure lowered by 30% by [10] | Blood pressure lowered by 50% by [10] | Inhibition of the carotid sinus reflex by 30% by [11] | Inhibition of the carotid sinus reflex by 50% by [11] | ED50 [4, 12] [mg/kg] | ED25 ([1]; Mus musculus) [mg/kg] |
| --- | --- | --- | --- | --- | --- | --- | --- | --- | --- | --- | --- | --- | --- | --- | --- | --- |
| Cc1c(N(C)C)c(=O)n(-c2ccccc2)n1C [Aminophenazone, 4-dimethylamino-1-phenyl-2,3-dimethylpyrazolone-5, reference compound] | 80 | – | – | – | – | – | – | – | – | – | – | – | – | – | – | – |
| CNC1=Nc2ccc(Cl)cc2C(c2ccccc2)=[N+]([O-])C1 [Chlordiazepoxide, chlorodiazepoxide, reference compound] | – | 324 | 15 | 19 | 38 | 8 | – | – | – | – | – | – | – | – | – | – |
| COc1cc2nc(CCN3CCN(c4ccccc4)CC3)[nH]c(=O)c2cc1OC [Example 1, 2-(2-(1-phenylpiperazinyl-4)ethyl)-6,7-dimethoxy-4(3H)-quinazolone] | 1.5 | 64 | 15 | 55 | 33 | 1000 | 5 | 0.3 | 70 | 0.23 | – | – | – | – | – | – |
| COc1cc2nc(CCN3CCN(c4ccccc4C)CC3)[nH]c(=O)c2cc1OC [Example 2, 2-(2-(1-(2-tolyl)-piperazinyl-4)ethyl)-6,7-dimethoxy-4(3H)-quinazolone] | 1 | 121 | 11 | 10 | 35 | 140 | 1.4 | 0.65 | 70 | 0.042 | 0.029 | > 1.6 | < 0.01 | 0.02 | – | – |
| COc1cc2nc(CCN3CCN(c4cccc(C)c4)CC3)[nH]c(=O)c2cc1OC [Example 3, 2-(2-(1-(3-tolyl)piperazinyl-4)ethyl)-6,7-dimethoxy-4(3H)-quinazolone] | 2 | 69 | 13 | 41 | 24 | 60 | 5 | 0.32 | 200 | 0.35 | – | – | – | – | – | – |
| COc1cc2nc(CCN3CCN(c4ccc(C)cc4)CC3)[nH]c(=O)c2cc1OC [Example 4] | 3 | 125 | 51 | 65 | 23 | 70 | – | 0.65 | 100 | – | – | – | – | – | – | – |
| COc1cc2nc(CCN3CCN(c4cccc(C(F)(F)F)c4)CC3)[nH]c(=O)c2cc1OC [Example 5, 2-(2-(1-(3-trifluoromethylphenyl)piperazinyl-4)ethyl)-6,7-dimethoxy-4(3H)-quinazolone] | < 1 | – | – | – | – | – | – | – | – | – | – | – | – | – | – | – |
| COc1cc2nc(CCN3CCN(c4ccccc4OC)CC3)n(C)c(=O)c2cc1OC [Example 8] | – | – | – | – | – | – | – | 0.12 | 350 | 0.035 | – | – | – | – | – | – |
| CCOc1ccccc1N1CCN(CCc2nc3cc(OC)c(OC)cc3c(=O)[nH]2)CC1 [Example 10, 2-(2-(1-(2-ethoxyphenyl)piperazinyl-4)ethyl)-6,7-dimethoxy-4(3H)-quinazolone] | 2 | – | – | – | – | – | 1.8 | 0.4 | 300 | 0.0085 | 0.03 | 1.4 | < 0.02 | 0.03 | – | – |
| COc1cc2nc(CCN3CCN(c4ccccc4Cl)CC3)[nH]c(=O)c2cc1OC [Example 11, 2-(2-(1-(2-chlorophenyl)piperazinyl-4)ethyl)-6,7-dimethoxy-4(2H)-quinazolone] | 4 | 87 | 18 | 32 | 53 | 110 | > 2.5 | 0.1 | 200 | 0.048 | 0.04 | > 1.6 | 0.017 | 0.04 | – | – |
| COc1cc2nc(CCN3CCN(c4cccc(Cl)c4)CC3)[nH]c(=O)c2cc1OC [Example 12, 2-(2-(1-(3-chlorophenyl)piperazinyl-4)ethyl)-6,7-dimethoxy-4(3H)-quinazolone] | 1.5 | 78 | 0 | 19 | – | 500 | – | – | – | – | – | – | – | – | 34 | – |
| COc1cc2nc(CCN3CCN(c4ccc(Cl)cc4)CC3)[nH]c(=O)c2cc1OC [Example 13, 2-(2-(1-(4-chlorophenyl)piperazinyl-4)ethyl)-6,7-dimethoxy-4(3H)-quinazolone] | 2 | 44 | 15 | 15 | – | 200 | – | – | – | – | – | – | – | – | 46 | – |
| COc1cc2nc(CCN3CCN(c4cccc(F)c4)CC3)[nH]c(=O)c2cc1OC [Example 15, 2-(2-(1-(3-fluorophenyl)piperazinyl-4)ethyl)-6,7-dimethoxy-4(3H)-quinazolone] | 1 | – | – | – | – | – | 4.3 | 0.2 | 200 | 0.32 | – | – | – | – | – | – |
| COc1cc2nc(CCN3CCN(c4ccc(F)cc4)CC3)[nH]c(=O)c2cc1OC [Example 16, 2-(2-(1(4-fluorophenyl)piperazinyl-4)ethyl)-6,7-dimethoxy-4(3H)-quinazolone] | 2.5 | 103 | 10 | 49 | 14 | 65 | 4 | 0.6 | 300 | 0.57 | – | – | – | – | – | – |
| COc1ccc(N2CCN(CCc3nc4cc(OC)c(OC)cc4c(=O)[nH]3)CC2)cc1 [Example 17, 2-(2-(1-(4-methoxyphenyl)piperazinyl-4)ethyl)-6,7-dimethoxy-4(3H)-quinazolone] | 2 | – | – | – | – | – | – | – | – | – | 4.5 | > 1.5 | – | – | – | – |
| COc1cc2nc(CN3CCN(c4ccccc4OC)CC3)[nH]c(=O)c2cc1OC [Example 18, 2-(1-(2-methoxyphenyl)piperazinyl-4)methyl-6,7-dimethoxy-4(3H)-quinazolone] | 8 | > 15 | – | 12 | – | 1000 | – | – | – | – | – | – | – | – | – | – |
| COc1cc2nc(CCCN3CCN(c4ccccc4OC)CC3)[nH]c(=O)c2cc1OC [Example 20, 2-(3-(1-(2-methoxy-phenyl)-piperazinyl-4)-n-propyl)-6,7-dimethoxy-4(3H)-quinazolone] | 2 | – | – | – | – | – | 1.15 | 0.65 | 300 | 0.05 | – | – | – | – | – | – |
| CCCC(C)(COC(N)=O)COC(N)=O [Meprobamate, reference compound] | – | 18 | 11 | 28 | 95 | 300 | – | – | – | – | – | – | – | – | – | – |
| CN1CC[C@]23c4c5ccc(O)c4O[C@H]2[C@@H](O)C=C[C@H]3[C@H]1C5.Cl [Morphine hydrochloride, morphine hydrochloride, reference compound] | – | – | – | – | – | – | – | – | – | – | – | – | – | – | – | 2 |
| Cc1ccc(N(CC2=NCCN2)c2cccc(O)c2)cc1 [Phentolamine, phentolamine, reference compound] | – | – | – | – | – | – | 0.18 | 0.63 | 200 | 0.047 | 0.1 | 0.7 | 0.1 | 0.5 | – | – |
